According to the NIST ThermoML archive (doi:10.1016/j.fluid.2016.11.010):
Numbers after ± are expanded uncertainties.

Tests used:
[1] = for vapor or sublimation pressure: Liquid, Transpiration method
[2] = Molar enthalpy of transition or fusion; conditions: Crystal; DSC

Q: For `Cc1ccc(-n2ccnc2)cc1` [4-methyl-phenyl-1H-imidazole], which “vapor or sublimation pressure” value ([1]; 328.3 K) is on record?
A: 0.00266 ± 0.00018 kPa

Q: What about the “vapor or sublimation pressure” value ([1]; 333 K) of the same compound?
A: 0.00399 ± 0.00025 kPa

Q: What about the “vapor or sublimation pressure” value ([1]; 338.1 K) of the same compound?
A: 0.00603 ± 0.00043 kPa

Q: And the “vapor or sublimation pressure” value ([1]; 340.8 K)?
A: 0.00739 ± 0.00051 kPa

Q: What about the “vapor or sublimation pressure” value ([1]; 345.7 K) of the same compound?
A: 0.01103 ± 0.00074 kPa

Q: What about the “vapor or sublimation pressure” value ([1]; 350.7 K) of the same compound?
A: 0.01582 ± 0.001 kPa

Q: And the “vapor or sublimation pressure” value ([1]; 355.7 K)?
A: 0.02204 ± 0.0014 kPa

Q: And the “vapor or sublimation pressure” value ([1]; 360.7 K)?
A: 0.0313 ± 0.002 kPa

Q: What about the “vapor or sublimation pressure” value ([1]; 365.6 K) of the same compound?
A: 0.04264 ± 0.0027 kPa

Q: What about the “vapor or sublimation pressure” value ([1]; 370.6 K) of the same compound?
A: 0.0608 ± 0.0038 kPa

Q: And the “vapor or sublimation pressure” value ([1]; 375.3 K)?
A: 0.07866 ± 0.0049 kPa

Q: For `Cc1ccccc1-n1ccnc1` [1-(o-tolyl)-1H-imidazole], which “vapor or sublimation pressure” value ([1]; 313.3 K) is on record?
A: 0.00112 ± 8e-05 kPa

Q: And the “vapor or sublimation pressure” value ([1]; 318.2 K)?
A: 0.00165 ± 0.00012 kPa

Q: And the “vapor or sublimation pressure” value ([1]; 323.2 K)?
A: 0.00266 ± 0.00017 kPa

Q: And the “vapor or sublimation pressure” value ([1]; 328.2 K)?
A: 0.00389 ± 0.00025 kPa

Q: What about the “vapor or sublimation pressure” value ([1]; 333.2 K) of the same compound?
A: 0.00587 ± 0.00041 kPa

Q: What about the “vapor or sublimation pressure” value ([1]; 338.1 K) of the same compound?
A: 0.00828 ± 0.00056 kPa

Q: What about the “vapor or sublimation pressure” value ([1]; 343.1 K) of the same compound?
A: 0.01155 ± 0.00076 kPa

Q: And the “vapor or sublimation pressure” value ([1]; 348.1 K)?
A: 0.01711 ± 0.0011 kPa

Q: And the “vapor or sublimation pressure” value ([1]; 353.1 K)?
A: 0.02295 ± 0.0015 kPa

Q: And the “vapor or sublimation pressure” value ([1]; 358 K)?
A: 0.03338 ± 0.0021 kPa

Q: And the “vapor or sublimation pressure” value ([1]; 363 K)?
A: 0.04638 ± 0.0029 kPa

Q: For `COc1ccc(-n2ccnc2)cc1` [4-methoxy-phenyl-1H-imidazole], which “vapor or sublimation pressure” value ([1]; 333.4 K) is on record?
A: 0.00061 ± 5e-05 kPa

Q: What about the “vapor or sublimation pressure” value ([1]; 338.2 K) of the same compound?
A: 0.00094 ± 7e-05 kPa

Q: And the “vapor or sublimation pressure” value ([1]; 343.3 K)?
A: 0.00147 ± 0.0001 kPa

Q: What about the “vapor or sublimation pressure” value ([1]; 348.2 K) of the same compound?
A: 0.00215 ± 0.00015 kPa

Q: What about the “vapor or sublimation pressure” value ([1]; 353.3 K) of the same compound?
A: 0.00328 ± 0.00022 kPa

Q: And the “vapor or sublimation pressure” value ([1]; 358.3 K)?
A: 0.00469 ± 0.0003 kPa

Q: What about the “vapor or sublimation pressure” value ([1]; 363.3 K) of the same compound?
A: 0.00695 ± 0.00048 kPa

Q: What about the “vapor or sublimation pressure” value ([1]; 368.2 K) of the same compound?
A: 0.00969 ± 0.00066 kPa

Q: And the “vapor or sublimation pressure” value ([1]; 373.2 K)?
A: 0.01433 ± 0.00093 kPa

Q: With `Brc1ccc(-n2ccnc2)cc1` [4-bromo-phenyl-1H-imidazole] as the compound, how does the “vapor or sublimation pressure” value ([1]; 343.3 K) read?
A: 0.00037 ± 3e-05 kPa

Q: What about the “vapor or sublimation pressure” value ([1]; 348.1 K) of the same compound?
A: 0.00065 ± 5e-05 kPa

Q: And the “vapor or sublimation pressure” value ([1]; 353 K)?
A: 0.00103 ± 7e-05 kPa

Q: What about the “vapor or sublimation pressure” value ([1]; 358.2 K) of the same compound?
A: 0.00174 ± 0.00012 kPa

Q: What about the “vapor or sublimation pressure” value ([1]; 363.2 K) of the same compound?
A: 0.00273 ± 0.00018 kPa

Q: What about the “vapor or sublimation pressure” value ([1]; 368.2 K) of the same compound?
A: 0.00467 ± 0.00031 kPa

Q: What about the “vapor or sublimation pressure” value ([1]; 374.1 K) of the same compound?
A: 0.00773 ± 0.00053 kPa

Q: What about the Normal melting temperature ([1]; Crystal, DTA) of the same compound?
A: 120.1 ± 1.1 °C

Q: And the “Molar enthalpy of transition or fusion” value [2]?
A: 6.84 ± 0.287 kcal/mol

Q: For `Fc1ccc(-n2ccnc2)cc1` [4-fluoro-phenyl-1H-imidazole], which “vapor or sublimation pressure” value ([1]; 313 K) is on record?
A: 0.00108 ± 7e-05 kPa

Q: What about the “vapor or sublimation pressure” value ([1]; 318.4 K) of the same compound?
A: 0.00166 ± 0.00012 kPa

Q: What about the “vapor or sublimation pressure” value ([1]; 323.3 K) of the same compound?
A: 0.00268 ± 0.00018 kPa

Q: And the “vapor or sublimation pressure” value ([1]; 328.2 K)?
A: 0.00401 ± 0.00027 kPa

Q: What about the “vapor or sublimation pressure” value ([1]; 333.2 K) of the same compound?
A: 0.00563 ± 0.0004 kPa

Q: And the “vapor or sublimation pressure” value ([1]; 335.7 K)?
A: 0.00702 ± 0.00048 kPa

Q: What about the “vapor or sublimation pressure” value ([1]; 338.2 K) of the same compound?
A: 0.00834 ± 0.00056 kPa

Q: And the “vapor or sublimation pressure” value ([1]; 340.7 K)?
A: 0.01004 ± 0.00068 kPa

Q: And the “vapor or sublimation pressure” value ([1]; 343.2 K)?
A: 0.01191 ± 0.00079 kPa

Q: And the “vapor or sublimation pressure” value ([1]; 345.6 K)?
A: 0.01481 ± 0.00098 kPa

Q: What about the “vapor or sublimation pressure” value ([1]; 348.2 K) of the same compound?
A: 0.01727 ± 0.0011 kPa

Q: What about the “vapor or sublimation pressure” value ([1]; 353.1 K) of the same compound?
A: 0.02449 ± 0.0016 kPa

Q: And the “vapor or sublimation pressure” value ([1]; 358.2 K)?
A: 0.03573 ± 0.0023 kPa

Q: What about the “vapor or sublimation pressure” value ([1]; 363.2 K) of the same compound?
A: 0.04969 ± 0.0032 kPa

Q: And the “vapor or sublimation pressure” value ([1]; 368.1 K)?
A: 0.06685 ± 0.0042 kPa

Q: And the “vapor or sublimation pressure” value ([1]; 373.1 K)?
A: 0.09256 ± 0.0058 kPa

Q: Which “vapor or sublimation pressure” value ([1]; 333.2 K) does the source give for `COc1ccccc1-n1ccnc1` [2-methoxy-phenyl-1H-imidazole] here?
A: 0.00084 ± 7e-05 kPa

Q: And the “vapor or sublimation pressure” value ([1]; 338.3 K)?
A: 0.00128 ± 9e-05 kPa

Q: And the “vapor or sublimation pressure” value ([1]; 343.1 K)?
A: 0.00192 ± 0.00013 kPa

Q: And the “vapor or sublimation pressure” value ([1]; 348.1 K)?
A: 0.00293 ± 0.0002 kPa

Q: What about the “vapor or sublimation pressure” value ([1]; 353 K) of the same compound?
A: 0.00409 ± 0.00027 kPa

Q: And the “vapor or sublimation pressure” value ([1]; 358 K)?
A: 0.00591 ± 0.00041 kPa

Q: And the “vapor or sublimation pressure” value ([1]; 362.9 K)?
A: 0.00864 ± 0.00058 kPa

Q: And the “vapor or sublimation pressure” value ([1]; 367.9 K)?
A: 0.01198 ± 0.00079 kPa

Q: And the “vapor or sublimation pressure” value ([1]; 374.2 K)?
A: 0.01855 ± 0.0012 kPa

Q: Which “vapor or sublimation pressure” value ([1]; 323.2 K) does the source give for `Fc1ccccc1-n1ccnc1` [2-fluoro-phenyl-1H-imidazole] here?
A: 0.0041 ± 0.00028 kPa

Q: And the “vapor or sublimation pressure” value ([1]; 328.2 K)?
A: 0.00615 ± 0.00043 kPa

Q: What about the “vapor or sublimation pressure” value ([1]; 333.2 K) of the same compound?
A: 0.00892 ± 0.00061 kPa

Q: What about the “vapor or sublimation pressure” value ([1]; 338.1 K) of the same compound?
A: 0.01364 ± 0.00091 kPa

Q: What about the “vapor or sublimation pressure” value ([1]; 343.1 K) of the same compound?
A: 0.01948 ± 0.0013 kPa

Q: And the “vapor or sublimation pressure” value ([1]; 348.1 K)?
A: 0.02761 ± 0.0018 kPa

Q: And the “vapor or sublimation pressure” value ([1]; 353.1 K)?
A: 0.03781 ± 0.0024 kPa

Q: What about the “vapor or sublimation pressure” value ([1]; 358.1 K) of the same compound?
A: 0.05311 ± 0.0034 kPa

Q: What about the “vapor or sublimation pressure” value ([1]; 363 K) of the same compound?
A: 0.0745 ± 0.0047 kPa

Q: And the “vapor or sublimation pressure” value ([1]; 367.9 K)?
A: 0.09597 ± 0.006 kPa

Q: Which “vapor or sublimation pressure” value ([1]; 343.2 K) does the source give for `Brc1ccccc1-n1ccnc1` [2-bromo-phenyl-1H-imidazole] here?
A: 0.00369 ± 0.00025 kPa

Q: What about the “vapor or sublimation pressure” value ([1]; 348.2 K) of the same compound?
A: 0.00534 ± 0.00038 kPa

Q: And the “vapor or sublimation pressure” value ([1]; 353.2 K)?
A: 0.00754 ± 0.00051 kPa

Q: And the “vapor or sublimation pressure” value ([1]; 358.1 K)?
A: 0.01128 ± 0.00076 kPa

Q: And the “vapor or sublimation pressure” value ([1]; 363.1 K)?
A: 0.01573 ± 0.001 kPa

Q: And the “vapor or sublimation pressure” value ([1]; 368 K)?
A: 0.0218 ± 0.0014 kPa

Q: And the “vapor or sublimation pressure” value ([1]; 374 K)?
A: 0.03122 ± 0.002 kPa

Q: What does the source list for `c1ccc(-n2ccnc2)cc1` [1-phenylimidazole]?
A: vapor or sublimation pressure ([1]; 298.7 K): 0.00041 ± 4e-05 kPa; vapor or sublimation pressure ([1]; 308.6 K): 0.00105 ± 7e-05 kPa; vapor or sublimation pressure ([1]; 313.5 K): 0.00158 ± 0.0001 kPa; vapor or sublimation pressure ([1]; 318.4 K): 0.00254 ± 0.00017 kPa; vapor or sublimation pressure ([1]; 319.1 K): 0.00269 ± 0.00017 kPa; vapor or sublimation pressure ([1]; 323.5 K): 0.00393 ± 0.00025 kPa; vapor or sublimation pressure ([1]; 328.5 K): 0.00594 ± 0.00041 kPa; vapor or sublimation pressure ([1]; 333.7 K): 0.00902 ± 0.00061 kPa; vapor or sublimation pressure ([1]; 338.4 K): 0.01334 ± 0.00088 kPa; vapor or sublimation pressure ([1]; 343.2 K): 0.01799 ± 0.0012 kPa; vapor or sublimation pressure ([1]; 348.2 K): 0.02552 ± 0.0016 kPa; vapor or sublimation pressure ([1]; 353.1 K): 0.03567 ± 0.0023 kPa
